Laboratory results published in US20150182546A1, “THERAPEUTIC AGENT FOR ENHANCING MITOCHONDRIAL FUNCTION” (Mitochondrial Concepts LLC, priority 2013, published 2015).

Legend:
Type in all cases: in vivo, human
patient of advanced age = assay: Treatment of a patient of advanced age with oral 4SAS; details: patient in early 70s; oral dosage
[1] = tested on: pseudohypertrophic muscular dystrophy patients; assay: Treatment of pseudohypertrophic muscular dystrophy patients with 4SAS
ALS patient = assay: Treatment of an ALS patient with oral 4SAS; details: ALS patient previously unable to speak; oral dosage
[2] = Oral administration of adenylosuccinate in clinical trials
Text: The administration of the adenylosuccinate may be accomplished via several approaches. It is possible to administer adenylosuccinate by means of a sub-cutaneous pump. […] Alternatively, adenylosuccinate might be suitably packaged for timed release or trans-dermal application.

O=C([O-])C[C@H](Nc1ncnc2c1ncn2[C@@H]1O[C@H](COP(=O)([O-])[O-])[C@@H](O)[C@H]1O)C(=O)[O-].[Na+].[Na+].[Na+].[Na+] [4SAS, tetrasodium adenylosuccinate]
energy (patient of advanced age): increased energy | healing (patient of advanced age): accelerated healing | posture (patient of advanced age): improved posture | Improved? ([1]; Patient A, severity 1, therapy 81-89, 1 mg-10 mg, 10-20 mg, 100 mg, 200 mg): Yes | Improved? ([1]; Patient C, severity 3, therapy 81-84, 1 mg-10 mg, 10-20 mg): Yes | Improved? ([1]; Patient D, severity 4, therapy 81-84, 1 mg-10 mg, 10-20 mg): Yes | Improved? ([1]; Patient E, severity 5, therapy 81-84, 1 mg-10 mg, 10-20 mg): Yes | Improved? ([1]; Patient F, therapy 88-89, 70 mg): Yes | Improved? ([1]; Patient G, therapy 87-89, 150 mg, 333 mg): Yes | Improved? ([1]; Patient H, therapy 88-89, 200 mg, 300 mg): Yes | Improved? ([1]; Patient I, therapy 86-89, 10 mg, 25 mg, 100 mg): Yes | Improved? ([1]; Patient J, therapy 86-89, 1200 mg): Yes | Improved? ([1]; Patient K, therapy 87-89, 200 mg, 300 mg): Yes | Improved? ([1]; Patient L, therapy 87-89, dosage small): Yes | Improved? ([1]; Patient N, therapy 89-89, 300 mg): Yes | strength and related functionality ([1]; thirteen young PMD patients at various stages, intraperitoneal, subcutaneous and oral dosages): increased strength and related functionality | capacity to speak (ALS patient): temporarily regained capacity to speak intelligibly

O=C(O)CC(Nc1ncnc2c1ncn2[C@@H]1O[C@H](COP(=O)(O)O)[C@@H](O)[C@H]1O)C(=O)O (stereo partly drawn) [adenylosuccinate]
efficacy of oral administration [2]: proven efficacious
